Legend:
Type in all cases: cell-based
[1] = system: ERK1/2 phosphorylation of p90RSK in HT29 cells; assay: pRSK MSD Assay in HT29 cells; settings: Homo sapiens, HT-29, read-out: ERK1/ERK2 PRSK MSD HT29 EC50
Summary of the method: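 Phospho-RSK level, read by electrochemiluminescence on RSK-antibody-coated MSD plates with a phospho-RSK/Sulfo-tag detection pair, reports cellular ERK1/2 activity. HT29 cells, kept overnight in 0.1% FBS medium, were exposed to compound for 120 min at 37° C before lysis.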

[2] = system: A375 cells (malignant melanoma); assay: Inhibition of cancer cell proliferation, A375 (CellTiterGlo, 72 hours); settings: Homo sapiens, A-375
Summary of the method: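 GI50 derived from % growth inhibition relative to untreated wells, after luminescence (CellTiterGlo, 10 min) was converted to cell counts using a standard curve. Compound given as 3-fold dilutions from a 2× 5,000 nM stock in serum-free DMEM; 3000 A375 cells/well, 72 h culture at 37 °C.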

[3] = system: ERK1/2 phosphorylation of p90RSK in HCT116 cells; assay: Detection of total and phospho-RSK by MSD ELISA (HCT116); settings: Homo sapiens, HCT-116, read-out: ERK1/ERK2 PRSK HCT116 EC50
Summary of the method: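 ERK1/2 activity read in cells as p90RSK phosphorylation: lysates from HCT116 cells given compound for 2 h at 37° C were captured on MSD plates. Detection used a pSer380 RSK or a total RSK antibody with SulfoTag secondaries.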

Row | SMILES | EC50 [1] | GI50 [2] | EC50 [3]
1 | C=CC(=O)Nc1cc(C)ccc1Nc1nc(Nc2cc(OC)nc(N(C)C3CC3)c2)ncc1C(F)(F)F [Compound I-342, N-(2-((2-((2-(cyclopropyl(methyl)amino)-6-methoxypyridin-4-yl)amino)-5-(trifluoromethyl)pyrimidin-4-yl)amino)-5-methylphenyl)acrylamide] | 101 to 500 nM | 101 to 500 nM | 101 to 500 nM
2 | C=CC(=O)Nc1cc(OC)ccc1Nc1nc(Nc2cc(OC)nc(N3CCN(C(C)=O)CC3)c2)ncc1C(F)(F)F [Compound I-91, N-(2-((2-((2-(4-Acetylpiperazin-1-yl)-6-methoxypyridin-4-yl)amino)-5-(trifluoromethyl)pyrimidin-4-yl)amino)-5-methoxyphenyl)acrylamide] | 101 to 500 nM | < 100 nM | < 100 nM
3 | C=CC(=O)Nc1cc(C)ccc1Nc1nc(Nc2cc(OC)nc(N3CCN(C)CC3)c2)ncc1C(F)(F)F [Compound I-325, N-(2-((2-((2-methoxy-6-(4-methylpiperazin-1-yl)pyridin-4-yl)amino)-5-(trifluoromethyl)pyrimidin-4-yl)amino)-5-methylphenyl)acrylamide] | 101 to 500 nM | < 100 nM | < 100 nM
4 | C=CC(=O)Nc1ccccc1Nc1nc(Nc2cc(OC)nc(N3CCCCC3)c2)ncc1C(F)(F)F [Compound I-282, N-(2-((2-((2-Methoxy-6-(piperidin-1-yl)pyridin-4-yl)amino)-5-(trifluoromethyl)pyrimidin-4-yl)amino)phenyl)acrylamide] | 101 to 500 nM | < 100 nM | < 100 nM
5 | C=CC(=O)Nc1ccccc1Nc1nc(Nc2cc(OC)nc(N3CCS(=O)(=O)CC3)c2)ncc1C(F)(F)F [Compound I-291, N-(2-((2-((2-(1,1-Dioxidothiomorpholino)-6-methoxypyridin-4-yl)amino)-5-(trifluoromethyl)pyrimidin-4-yl)amino)phenyl)acrylamide] | < 100 nM | < 100 nM | < 100 nM
6 | C=CC(=O)Nc1ccccc1Nc1nc(Nc2ccnnc2)ncc1C(F)(F)F [Compound I-293, N-(2-((2-(Pyridazin-4-ylamino)-5-(trifluoromethyl)pyrimidin-4-yl)amino)phenyl)acrylamide] | 101 to 500 nM | < 100 nM | < 100 nM
7 | C=CC(=O)Nc1cc(OC)ccc1Nc1nc(Nc2cc(OC)ncc2C)ncc1Cl [Compound I-242, N-(2-((5-chloro-2-((2-methoxy-5-methylpyridin-4-yl)amino)pyrimidin-4-yl)amino)-5-methoxyphenyl)acrylamide] | < 100 nM | < 100 nM | > 1000 nM
8 | C=CC(=O)Nc1ccccc1Nc1nc(Nc2cc(NCCOC)nc(OC)c2)ncc1C(F)(F)F [Compound I-286, N-(2-((2-((2-Methoxy-6-((2-methoxyethyl)amino)pyridin-4-yl)amino)-5-(trifluoromethyl)pyrimidin-4-yl)amino)phenyl)acrylamide] | < 100 nM | < 100 nM | < 100 nM
9 | C=CC(=O)Nc1cc(C)ccc1Nc1nc(Nc2cc(OC)nc(N3CC(O)C3)c2)ncc1C(F)(F)F [Compound I-328, N-(2-((2-((2-(3-hydroxyazetidin-1-yl)-6-methoxypyridin-4-yl)amino)-5-(trifluoromethyl)pyrimidin-4-yl)amino)-5-methylphenyl)acrylamide] | < 100 nM | < 100 nM | < 100 nM
10 | C=CC(=O)Nc1cc(OC)ccc1Nc1nc(Nc2cc(OC)ncc2C)ncc1C(F)(F)F [Compound I-284, N-(5-Methoxy-2-((2-((2-methoxy-5-methylpyridin-4-yl)amino)-5-(trifluoromethyl)pyrimidin-4-yl)amino)phenyl)acrylamide] | < 100 nM | < 100 nM | < 100 nM

The remaining lines, values ahead:

Row | EC50 [1] | GI50 [2] | EC50 [3] | SMILES
11 | < 100 nM | < 100 nM | < 100 nM | C=CC(=O)Nc1cc(C)ccc1Nc1nc(Nc2cc(OC)nc(N3CCN(C(C)=O)CC3)c2)ncc1Cl [Compound I-296, N-(2-((2-((2-(4-acetylpiperazin-1-yl)-6-methoxypyridin-4-yl)amino)-5-chloropyrimidin-4-yl)amino)-5-methylphenyl)acrylamide]
12 | < 100 nM | < 100 nM | 101 to 500 nM | C=CC(=O)Nc1cc(F)ccc1Nc1nc(Nc2cc(OC)ncc2C)ncc1C(F)(F)F [Compound I-322, N-(5-fluoro-2-((2-((2-methoxy-5-methylpyridin-4-yl)amino)-5-(trifluoromethyl)pyrimidin-4-yl)amino)phenyl)acrylamide]
13 | < 100 nM | 101 to 500 nM | 101 to 500 nM | C=CC(=O)Nc1ccccc1Nc1nc(Nc2cc(OC)ccc2C)ncc1C(F)(F)F [Compound I-340, N-(2-((2-((5-methoxy-2-methylphenyl)amino)-5-(trifluoromethyl)pyrimidin-4-yl)amino)phenyl)acrylamide]
14 | < 100 nM | < 100 nM | 101 to 500 nM | C=CC(=O)Nc1cc(C)ccc1Nc1nc(Nc2cc(OC)nc(N(C)CCOC)c2)ncc1C(F)(F)F [Compound I-336, N-(2-((2-((2-methoxy-6-((2-methoxyethyl)(methyl)amino)pyridin-4-yl)amino)-5-(trifluoromethyl)pyrimidin-4-yl)amino)-5-methylphenyl)acrylamide]
15 | < 100 nM | 101 to 500 nM | 101 to 500 nM | C=CC(=O)Nc1cc(C)ccc1Nc1nc(Nc2cc(OC)ncc2C)ncc1C(F)(F)F [Compound I-90, N-(2-((2-((2-Methoxy-5-methylpyridin-4-yl)amino)-5-(trifluoromethyl)pyrimidin-4-yl)amino)-5-methylphenyl)acrylamide]
16 | < 100 nM | < 100 nM | < 100 nM | C=CC(=O)Nc1ccccc1Nc1nc(Nc2cc(OC)nc(N3CCCC3)c2)ncc1C(F)(F)F [Compound I-281, N-(2-((2-((2-Methoxy-6-(pyrrolidin-1-yl)pyridin-4-yl)amino)-5-(trifluoromethyl)pyrimidin-4-yl)amino)phenyl)acrylamide]
17 | < 100 nM | < 100 nM | < 100 nM | C=CC(=O)Nc1ccccc1Nc1nc(Nc2cc(OC)cc(OC)c2)ncc1C(F)(F)F [Compound I-338, N-(2-((2-((3,5-dimethoxyphenyl)amino)-5-(trifluoromethyl)pyrimidin-4-yl)amino)phenyl)acrylamide]
18 | < 100 nM | < 100 nM | < 100 nM | C=CC(=O)Nc1cc(OC)ccc1Nc1nc(Nc2cc(OC)nc(N3CCN(C)CC3)c2)ncc1C(F)(F)F [Compound I-334, N-(5-methoxy-2-((2-((2-methoxy-6-(4-methylpiperazin-1-yl)pyridin-4-yl)amino)-5-(trifluoromethyl)pyrimidin-4-yl)amino)phenyl)acrylamide]
19 | < 100 nM | < 100 nM | < 100 nM | C=CC(=O)Nc1ccccc1Nc1nc(Nc2cc(OC)nc(OCCOC)c2)ncc1C(F)(F)F [Compound I-283, N-(2-((2-((2-Methoxy-6-(2-methoxyethoxyl)pyridin-4-yl)amino)-5-(trifluoromethyl)pyrimidin-4-yl)amino)phenyl)acrylamide]
